Data as given in patent US20140066411A1, “PHARMACEUTICAL COMPOSITIONS FOR EXTENDED RELEASE OF AZO-BONDED 5-AMINOSALICYLIC ACID COMPOSITIONS” (Depomed, Inc., priority 2012, published 2014).

Test: Dissolving of olsalazine in dissolution media
Format: physicochemical
Experimental: Formulation 4 tablets were also made using pharmaceutical grade olsalazine in a micronized form in order to test the effects of drug particle size on tablet manufacturing and the ensuing release profiles. In vitro release profiles were evaluated for Formulation 4 tablets made as described in Example 1 and for tablets made using the same formula and process except with micronized olsalazine.

## olsalazine
pH 4.5 acetate buffer
  dissolving in media: did not completely dissolve
pH 7.5 phosphate buffer
  dissolving in media: dissolves easily
